Key:
Type in all cases: cell-based
[1] = system: gingival plaque; test: Cannabinoid effects on gingival plaque in vitro in subjects with gum disease (FIG. 2)
Description: FIG. 2A-2F illustrate the effects of selected cannabinoids on gingival plaque in various individuals. Samples of gingival plaque were obtained from individuals A-F with various degrees of gum disease, samples were plated in the presence of various cannabinoids, cannabinoid formulations or essential oils, and cultured as above (samples A-F correspond to plates 1-6).
The effects of cannabinoids on gum disease was further investigated in a series of subjects with various degrees of gingivitis (an earliest and mildest form) or periodontitis (full-fledged gum disease), the severity of gum disease was further evaluated using Dutch Periodontal Screening Index (DPSI).
Samples of gingival plaque were obtained from 6 subjects (A-F) with various degrees of gum disease, samples were plated and cultured for 2 days at 37° C. in the presence of various cannabinoids and cannabinoid combinations.

[2] = system: dental biofilm/plaque; test: Preliminary case study: dental biofilm/plaque sample plated and cultured in the presence of cannabinoids (FIG. 1); conditions: dental plaque sample cultured for 2 days at 37° C.
Description: FIG. 1 illustrates a case study on the antimicrobial effect of cannabinoids on dental plaque. A sample of dental plaque was plated in the presence CBD or CBG and a reference antimicrobial agent (chlorhexidine gluconate, CHG), and cultured for 2 days at 37° C. The resulting bacterial colonies are shown.
A sample of dental biofilm/plaque was obtained, plated and cultured for 2 days at 37° C. in the presence of two types of cannabinoids, CBD and CBG, and Chlorhexidine (CHG) as a reference antimicrobial agent.

[3] = system: dental flora (plaque); test: Cannabinoid sensitivity tests in vitro on dental flora (plaque) of 10 subjects; parameters: key to suppression of bacterial flora (score): Increasing scores (+) indicate an increased suppression of bacterial flora; conditions: for suppression of bacterial flora (score): dental flora in vitro
Description: Subsequently, in a more extended in vitro trial the effectiveness of cannabinoids was determined in 10 subjects (A-J). Samples of dental flora (plaque) were collected by swabs, scrapes, and were tested on the following panel of cannabinoids and cannabinoid combinations: • 1=CBD • 2=CBD+CBN • 3=CBD+CBN+CBG • 4=CBD+CBN+CBG+CBC • 5=CBD+CBN+CBG+CBC+CBGA • 6=CHG reference antimicrobial agent • 7=control with no antiseptic or antimicrobial agent.
Bacterial sensitivity was determined by conventional methods, e.g., growth on selective media, microscopic fluorescence examination.

[4] = subject A, moderate gingivitis, DPSI score 1, 2 days at 37° C.
[5] = subject C, periodontitis, DPSI score −3, 2 days at 37° C.
[6] = subject D, moderate gingivitis, DPSI score 2, 2 days at 37° C.
[7] = subject E, advanced periodontitis, DPSI score +3, 2 days at 37° C.
[8] = subject F, moderate gingivitis, DPSI score 1, 2 days at 37° C.

SMILES: CCCCCc1cc(O)c(C/C=C(\C)CCC=C(C)C)c(O)c1 [CBG, Cannabigerol]
- Relative effectiveness [1, 4]: CBG > CBGA > CBN ≈ CBC
- Relative effectiveness [1, 5]: CBC > CBG > CBD > CBN
- Relative effectiveness [1, 6]: CBGA > CBC > CBG ≈ CBN
- Relative effectiveness [1, 7]: CBG ≈ CBGA > CBC > CBD
- Relative effectiveness [1, 8]: CBC > CBG ≈ CBGA ≈ CBD
- bacterial growth in the saturated zone [2]: lesser bacterial growth

SMILES: CCCCCc1cc(O)c(C/C=C(\C)CCC=C(C)C)c(O)c1C(=O)O [CBGA, Cannabigerolic acid]
- Relative effectiveness [1, 4]: CBG > CBGA > CBN ≈ CBC
- Relative effectiveness [1, 6]: CBGA > CBC > CBG ≈ CBN
- Relative effectiveness [1, 7]: CBG ≈ CBGA > CBC > CBD
- Relative effectiveness [1, 8]: CBC > CBG ≈ CBGA ≈ CBD

SMILES: CCCCCc1cc(O)c2c(c1)OC(C)(CCC=C(C)C)C=C2 (stereo not drawn) [CBC, Cannabichromene]
- Relative effectiveness [1, 4]: CBG > CBGA > CBN ≈ CBC
- Relative effectiveness [1, 5]: CBC > CBG > CBD > CBN
- Relative effectiveness [1, 6]: CBGA > CBC > CBG ≈ CBN
- Relative effectiveness [1, 7]: CBG ≈ CBGA > CBC > CBD
- Relative effectiveness [1, 8]: CBC > CBG ≈ CBGA ≈ CBD

SMILES: C=C(C)[C@@H]1CCC(C)=C[C@H]1c1c(O)cc(CCCCC)cc1O [CBD, Cannabidiol]
- Relative effectiveness ([1]; subject B, no gingivitis and no pathology, DPSI score 0, 2 days at 37° C.): POM ≈ POM form. ≈ CBD > CBD form.
- Relative effectiveness [1, 5]: CBC > CBG > CBD > CBN
- Relative effectiveness [1, 7]: CBG ≈ CBGA > CBC > CBD
- Relative effectiveness [1, 8]: CBC > CBG ≈ CBGA ≈ CBD
- effectiveness on suppression of dental flora in vitro ([3]; in many individuals): sufficiently effective
- most effective panel of cannabinoids ([3]; patient B): most effective
- bacterial growth in the saturated zone [2]: no growth

SMILES: N=C(NCCCCCCNC(=N)NC(=N)Nc1ccc(Cl)cc1)NC(=N)Nc1ccc(Cl)cc1.O=C(O)[C@H](O)[C@@H](O)[C@H](O)[C@H](O)CO.O=C(O)[C@H](O)[C@@H](O)[C@H](O)[C@H](O)CO [CHG, chlorhexidine gluconate]
- suppression of bacterial flora (score) ([3]; subject A): + +
- suppression of bacterial flora (score) ([3]; subject B): + +
- suppression of bacterial flora (score) ([3]; subject C): +
- suppression of bacterial flora (score) ([3]; subject D): + +
- suppression of bacterial flora (score) ([3]; subject E): − −
- suppression of bacterial flora (score) ([3]; subject F): − −
- suppression of bacterial flora (score) ([3]; subject G): + + +
- suppression of bacterial flora (score) ([3]; subject H): +
- suppression of bacterial flora (score) ([3]; subject I): + +
- suppression of bacterial flora (score) ([3]; subject J): − −
- bacterial growth in the saturated zone [2]: lesser bacterial growth

SMILES: CCCCCc1cc(O)c2c(c1)OC(C)(C)c1ccc(C)cc1-2 [CBN, Cannabinol]
- Relative effectiveness [1, 4]: CBG > CBGA > CBN ≈ CBC
- Relative effectiveness [1, 5]: CBC > CBG > CBD > CBN
- Relative effectiveness [1, 6]: CBGA > CBC > CBG ≈ CBN

— patent US12478569B2, “Compositions methods and device for enhancing dental care based on dead sea salt and cannabinoid or extract of cannabis plant” (CANNIBITE BVBA, priority 2019, dated 2025)
